In one assay the target is T1, Progesterone Receptor (Homo sapiens, UniProt P06401).
T1 construct: expressed in transfected cells; host or cells: CV-1 cells transduced with PRb-BacMam and MMTV-BacMam
T1 sequence (P06401 1-933): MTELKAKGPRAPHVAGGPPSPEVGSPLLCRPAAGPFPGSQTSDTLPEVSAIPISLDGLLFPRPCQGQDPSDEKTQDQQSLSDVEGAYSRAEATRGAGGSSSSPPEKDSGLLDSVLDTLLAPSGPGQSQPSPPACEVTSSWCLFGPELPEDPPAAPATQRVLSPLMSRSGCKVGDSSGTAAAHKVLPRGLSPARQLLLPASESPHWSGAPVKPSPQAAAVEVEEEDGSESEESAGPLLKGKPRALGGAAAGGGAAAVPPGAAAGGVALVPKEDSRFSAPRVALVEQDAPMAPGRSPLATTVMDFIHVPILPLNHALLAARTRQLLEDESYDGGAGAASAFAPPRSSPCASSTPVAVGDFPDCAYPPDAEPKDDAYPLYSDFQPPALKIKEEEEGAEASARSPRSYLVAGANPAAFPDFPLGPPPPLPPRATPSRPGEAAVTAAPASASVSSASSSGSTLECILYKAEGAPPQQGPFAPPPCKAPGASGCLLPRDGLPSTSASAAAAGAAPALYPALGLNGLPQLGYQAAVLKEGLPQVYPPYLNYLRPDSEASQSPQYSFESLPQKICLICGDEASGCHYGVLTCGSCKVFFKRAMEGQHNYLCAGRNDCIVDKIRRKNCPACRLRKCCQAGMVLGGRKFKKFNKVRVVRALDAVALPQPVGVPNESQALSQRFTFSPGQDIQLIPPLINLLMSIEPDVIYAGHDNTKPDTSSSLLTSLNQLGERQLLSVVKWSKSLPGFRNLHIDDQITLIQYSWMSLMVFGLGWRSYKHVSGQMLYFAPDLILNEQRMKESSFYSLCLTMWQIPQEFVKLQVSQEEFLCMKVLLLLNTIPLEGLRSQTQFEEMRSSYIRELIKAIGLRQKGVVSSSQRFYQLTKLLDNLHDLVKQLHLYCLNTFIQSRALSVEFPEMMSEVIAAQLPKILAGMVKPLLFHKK
Kind of assay: Assay for Progesterone Receptor Agonist Activity (CV-1 cells, PRb-BacMam, MMTV-BacMam). The assay is classed as cell-based. The following applies: at least once in this assay, read-out: progesterone receptor agonist pEC50 (converted). As for the experimental part:
A T225 flask of CV-1 cells at a density of 80% confluency was washed with PBS, detached from the flask using 0.25% trypsin and counted using a Sysmex KX-21N. Cells were diluted in DMEM containing 10% Hyclone, 2 mM […] and 1% Pen/Strep at 140 cells/μl and transduced with 10% PRb-BacMam and 10% MMTV-BacMam. […] of suspension cells were dispensed to each well of white Nunc 384-well plates, containing compounds at the required concentration. After 24 hr 10 μl of Steadylite were added to each well of the plates. Plates were incubated in the dark for 10 min before reading them on a Viewlux reader. Dose response curves were constructed from which pEC50 values were estimated.

In assay [1] the target is T2, GR (Homo sapiens, UniProt P04150).
T2 construct: endogenous in cells; host or cells: A549 (human lung carcinoma, ECACC No. 86012804), stably transfected with reporter plasmids only
T2 sequence (P04150 1-777): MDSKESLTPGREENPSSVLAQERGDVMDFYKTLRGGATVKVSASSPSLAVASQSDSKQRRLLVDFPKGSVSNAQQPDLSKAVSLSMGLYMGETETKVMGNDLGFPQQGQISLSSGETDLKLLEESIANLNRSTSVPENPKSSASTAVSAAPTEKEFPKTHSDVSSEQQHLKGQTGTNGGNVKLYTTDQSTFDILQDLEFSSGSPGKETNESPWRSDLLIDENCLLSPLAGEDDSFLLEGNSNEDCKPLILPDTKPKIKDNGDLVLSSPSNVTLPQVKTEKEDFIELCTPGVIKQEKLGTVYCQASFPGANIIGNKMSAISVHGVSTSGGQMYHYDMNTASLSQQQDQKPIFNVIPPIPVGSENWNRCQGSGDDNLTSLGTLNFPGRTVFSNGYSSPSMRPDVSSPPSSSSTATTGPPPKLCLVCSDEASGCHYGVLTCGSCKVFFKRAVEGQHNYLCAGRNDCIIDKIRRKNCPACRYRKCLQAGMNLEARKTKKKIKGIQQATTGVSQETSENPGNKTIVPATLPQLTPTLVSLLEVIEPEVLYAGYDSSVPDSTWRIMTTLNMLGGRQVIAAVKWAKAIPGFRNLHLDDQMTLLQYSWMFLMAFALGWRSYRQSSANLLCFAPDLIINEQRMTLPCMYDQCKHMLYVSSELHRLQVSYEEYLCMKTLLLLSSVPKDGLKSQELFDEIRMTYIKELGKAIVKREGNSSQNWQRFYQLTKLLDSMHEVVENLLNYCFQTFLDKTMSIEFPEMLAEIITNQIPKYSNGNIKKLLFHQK
Kind of assay: GR Functional Assay - NFκB Assay (A549 SPAP cells, TNFα stimulated). In kind it is cell-based. The following applies: for Emax: agonists, read-out: average maximum asymptote in the NFkB assay. The method, then: Stimulation of the cell line with TNFα results in intracellular signal transduction and ultimately translocation of NFκB into the nucleus. This activates the inserted DNA sequence resulting in transcription of the integrated SPAP gene, which is quantified using a calorimetric assay. […] The stably transfected cell line was grown as a monolayer in DMEM supplemented with FCS-HI (10%), Non-essential amino acids (1%), L-Glutamine (2 mM), Pen/Strep (1%) and Geneticin (50 mg/ml).
A 70% confluent T225 flask of A549 SPAP cells was harvested by centrifugation for 5 mins at 200 g, resuspended in assay buffer (DMEM supplemented with 10% FCS 2×HI, 2 mM L-Glutamine, 1% Pen/Strep and Non essential amino acids) and diluted to 0.16×10^6/ml. 60 μl of cell solution was dispensed to each well of clear Nunc 384-well plates, containing compound at the required concentration. […] Plates were equilibrated to room temperature for 1 hr prior to the addition of 25 μl of pNPP buffer (1M Diethanolamine pH 9.8, 0.5 mM MgCl2, 0.28M NaCl, 2 mg/ml pNPP) to each well of assay plates.

Assay [2] deals with T2, GR. Kind of assay: GR Agonist Assay - MMTV Assay (A549 MMTV cells, renilla luciferase reporter). In kind it is cell-based. The following applies: 6 h, agonists, read-out: average maximum asymptote in the MMTV agonist assay. As for the experimental part:
Stimulation of the cell line with GR agonists results in intracellular signal transduction and ultimately translocation of GR into the nucleus. This activates the inserted DNA sequence resulting in transcription of the integrated luciferase gene, which is quantified using a light emission. The stably transfected cell line was grown as a monolayer in DMEM supplemented with FCS-HI (10%), Non-essential amino acids (1%), L-Glutamine (2 mM), Pen/Strep (1%) and Geneticin (50 mg/ml).
A 90% confluent T175 flask of A549 MMTV cells was harvested by centrifugation for 5 min at 200 g, resuspended in assay buffer (DMEM supplemented with 10% FCS 2×HI, 2 mM Glutamax, Non essential amino acids and 25 mM HEPES) and diluted to 0.1×10^6/ml. 70 μl of cell solution was dispensed to each well of white Nunc 384-well plates, containing compound at the required concentration. […] The plates were covered to protect the reagents from light, and then incubated at room temperature for approximately 15 mins before reading them on a Viewlux.

A further assay addresses T3, glucocorticoid receptor (Homo sapiens, UniProt P04150).
T3 construct: a partially purified full length glucocorticoid receptor
T3 sequence (P04150 1-777): T2 sequence (P04150 1-777)
Briefly: Glucocorticoid Receptor Binding Assay (fluorescence polarisation, displacement of Alexa 555 labelled dexamethasone derivative). As to conditions: at least once in this assay; read-out: glucocorticoid binding pIC50 (converted). The method, then: Compounds were solvated and diluted in DMSO, and transferred directly into assay plates. Fluorescent dexamethasone and a partially purified full length glucocorticoid receptor were added to the plates, together with buffer components to stabilise the GR protein and incubated at room temperature for 2 hr in the dark. Binding of each compound was assessed by analysing the displacement of fluorescent ligand by measuring the decrease in fluorescence polarisation signal from the mixture.

Setting [3] is: at least once in the NFkB assay, A549 SPAP cells, read-out: pIC50 in the NFkB assay (converted).
Where [4] appears, read: at least once, examples listed as agonists in NFkB and MMTV assays, read-out: potency pIC50 in the NFKB assay (converted).

9 compounds from patent US20100035926A1, “PYRAZOLE DERIVATIVES AS NON-STEROIDAL GLUCOCORTICOID RECEPTOR LIGANDS” (priority 2006, published 2010) can be followed below.

Molecules are shown by their SMILES. Like-named read-outs stand apart in the source and are kept apart here.

Turning to `CCN(CC(O)(CNC(=O)c1cnn(-c2ccc(F)cc2)c1N)C(F)(F)F)C(=O)c1ncccc1Cl` (racemic) [Example 3 (racemic), N-[2-[({[5-Amino-1-(4-fluorophenyl)-1H-pyrazol-4-yl]carbonyl]amino)methyl]-3,3,3-trifluoro-2-hydroxypropyl}-3-chloro-N-ethyl-2-Pyridinecarboxamide], at Progesterone Receptor, the EC50 is greater than 1000 nM.

For `CCN(CC(O)(CNC(=O)c1cnn(-c2ccc(F)cc2)c1N)C(F)(F)F)C(=O)c1cccc2cccnc12` (racemic) [Example 8 (racemic), N-{2-[({[5-amino-1-(4-fluorophenyl)-1H-pyrazol-4-yl]carbonyl}amino)methyl]-3,3,3-trifluoro-2-hydroxypropyl}-N-ethyl-8-quinolinecarboxamide], the EC50 at Progesterone Receptor is greater than 1000 nM. Also, the Emax at GR [1] (A549 SPAP cells) and at GR [2] was no less than 40% in each case. In addition, the values for the IC50 on GR [1] (setting [3]) and on GR [1] (setting [4]) were less than 1000 nM and less than 316 nM, respectively.

With `CCN(CC(O)(CNC(=O)c1cnn(-c2ccc(F)cc2)c1N)C(F)(F)F)C(=O)c1ccccc1Cl` (racemic) [Example 16 (racemic), 5-amino-N-(2-{[[(2-chlorophenyl)car-bonyl](ethyl)amino]methyl}-3,3,3-trifluoro-2-hydroxypropyl)-1-(4-fluorophenyl)-1H-pyrazole-4-carboxamide], the EC50 on Progesterone Receptor is greater than 1000 nM.

In the case of `CCN(CC(O)(CNC(=O)c1cnn(-c2ccccc2)c1N)C(F)(F)F)C(=O)c1ccccc1` (racemic) [Example 43 (racemic), 5-amino-N-(2-{[ethyl(phenylcar-bonyl)amino]methyl}-3,3,3-trifluoro-2-hydroxypropyl)-1-phenyl-1H-pyrazole-4-carboxamide], the Emax at GR [1] (A549 SPAP cells) and at GR [2] was no less than 40% throughout. In addition, the IC50 on GR [1] (setting [4]) was less than 316 nM; on glucocorticoid receptor it was less than 1000 nM.

Take `Nc1c(C(=O)NCC(O)(CN(CCF)C(=O)c2ccccc2)C(F)(F)F)cnn1-c1ccc(F)cc1` (single isomer, unassigned) [Example 1 Enantiomer 1, 5-Amino-1-(4-fluorophenyl)-N-(3,3,3-trifluoro-2-{[(2-fluoroethyl)(phenylcarbonyl)amino]methyl}-2-hydroxypropyl)-1H-pyrazole-4-carboxamide]: the EC50 on Progesterone Receptor was greater than 1000 nM. Moreover, the IC50 at GR [1] (setting [3]) and at glucocorticoid receptor was less than 1000 nM each time.

Turning to `CCN(CC(O)(CNC(=O)c1cnn(-c2ccc(F)cc2)c1N)C(F)(F)F)C(=O)c1ccccc1F` (single isomer, unassigned) [Example 4 Enantiomer 1, 5-Amino-N-[2-({ethyl[(2-fluorophenyl)carbonyl]amino}methyl)-3,3,3-trifluoro-2-hydroxypropyl]-1-(4-fluorophenyl)-1H-pyrazole-4-carboxamide], on Progesterone Receptor, the EC50 was greater than 1000 nM. Besides, the IC50 on GR [1] (setting [3]) is less than 1000 nM.

Consider `CCN(CC(O)(CNC(=O)c1cnn(-c2ccc(F)cc2)c1N)C(F)(F)F)C(=O)c1ccccc1F` (single isomer, unassigned) [Example 4 Enantiomer 2, 5-Amino-N-[2-({ethyl[(2-fluorophenyl)carbonyl]amino}methyl)-3,3,3-trifluoro-2-hydroxypropyl]-1-(4-fluorophenyl)-1H-pyrazole-4-carboxamide], for which the Emax at GR [1] (A549 SPAP cells) and at GR [2] was no less than 40% in each case. For the same compound, the results for the IC50 at GR [1] (setting [4]) and on glucocorticoid receptor were less than 316 nM and less than 1000 nM, respectively.

For `CCN(CC(O)(CNC(=O)c1cnn(-c2ccc(F)cc2)c1N)C(F)(F)F)C(=O)c1ccccc1` (single isomer, unassigned) [Example 14 Enantiomer 1, 5-amino-N-(2-{[ethyl(phenylcar-bonyl)amino]methyl}-3,3,3-trifluoro-2-hydroxypropyl)-1-(4-fluorophenyl)-1H-pyrazole-4-carboxamide], the EC50 on Progesterone Receptor is greater than 1000 nM. Besides, at glucocorticoid receptor, the IC50 was less than 1000 nM.

As to `CCN(CC(O)(CNC(=O)c1cnn(-c2ccc(F)cc2)c1N)C(F)(F)F)C(=O)c1ccccc1Cl` (single isomer, unassigned) [Example 16 Enantiomer 1, 5-amino-N-(2-{[[(2-chlorophenyl)car-bonyl](ethyl)amino]methyl}-3,3,3-trifluoro-2-hydroxypropyl)-1-(4-fluorophenyl)-1H-pyrazole-4-carboxamide], at Progesterone Receptor, the EC50 was greater than 1000 nM.
